Laboratory results published in patent US12076315B2 (Clear Creek Bio, Inc., priority 2020, dated 2024).
Entries after “also recorded” stand apart in the source; their conditions may differ. Read-outs that look alike come from different tables or passages of the source.

Settings: for Comments: stability of the polymorph: Table 3, solid polymorph of brequinar sodium salt on storage; for Time after which the polymorph converts to Pattern C / Stability of the polymorphic form under ambient conditions (temperature and humidity): sodium salt; for Stability of the polymorphic form under ambient conditions (temperature and humidity): unstable forms convert to Pattern C

Compound | Comments: stability of the polymorph | Time after which the polymorph converts to Pattern C (at ambient condition) | Stability of the polymorphic form under ambient conditions (temperature and humidity) | Time after which the polymorph converts to Pattern C (closed cap storage) | Stability of the polymorphic form under ambient conditions (temperature and humidity) (listed as polymorphic form C)
Cc1c(-c2ccc(-c3ccccc3F)cc2)nc2ccc(F)cc2c1C(=O)[O-].[Na+] [Pattern I, 6-Flouro-2-(2′-fluoro-1,1′-biphenyl-4-yl)-3-methyl-4-quinolinecarboxylic acid sodium salt] | KF 7.3%, unstable, | 2 days at ambient condition. | unstable |  | 
Cc1c(-c2ccc(-c3ccccc3F)cc2)nc2ccc(F)cc2c1C(=O)[O-].[Na+] [Pattern E, 6-Flouro-2-(2′-fluoro-1,1′-biphenyl-4-yl)-3-methyl-4-quinolinecarboxylic acid sodium salt] |  |  | unstable | Pattern C after 1 week | 
Cc1c(-c2ccc(-c3ccccc3F)cc2)nc2ccc(F)cc2c1C(=O)[O-].[Na+] [Pattern G, 6-Flouro-2-(2′-fluoro-1,1′-biphenyl-4-yl)-3-methyl-4-quinolinecarboxylic acid sodium salt] | 15.3%), unstable, convert | to Pattern C after 2 weeks | unstable |  | 
Cc1c(-c2ccc(-c3ccccc3F)cc2)nc2ccc(F)cc2c1C(=O)[O-].[Na+] [Pattern J, 6-Flouro-2-(2′-fluoro-1,1′-biphenyl-4-yl)-3-methyl-4-quinolinecarboxylic acid sodium salt] | Unstable, convert to Pattern |  | unstable | C after 2 weeks (closed cap | 
Cc1c(-c2ccc(-c3ccccc3F)cc2)nc2ccc(F)cc2c1C(=O)[O-].[Na+] [Pattern B, 6-Flouro-2-(2′-fluoro-1,1′-biphenyl-4-yl)-3-methyl-4-quinolinecarboxylic acid sodium salt] | hydrate KF 4.8% unstable, | convert to Pattern C after 4 days | unstable |  | 
Cc1c(-c2ccc(-c3ccccc3F)cc2)nc2ccc(F)cc2c1C(=O)[O-].[Na+] [Pattern D, 6-Flouro-2-(2′-fluoro-1,1′-biphenyl-4-yl)-3-methyl-4-quinolinecarboxylic acid sodium salt] |  | C after 3 days at ambient | unstable |  | 
Cc1c(-c2ccc(-c3ccccc3F)cc2)nc2ccc(F)cc2c1C(=O)[O-].[Na+] [Pattern F, 6-Flouro-2-(2′-fluoro-1,1′-biphenyl-4-yl)-3-methyl-4-quinolinecarboxylic acid sodium salt] |  |  | unstable | Pattern C after 1 week | 
Cc1c(-c2ccc(-c3ccccc3F)cc2)nc2ccc(F)cc2c1C(=O)[O-].[Na+] [Pattern A, 6-Flouro-2-(2′-fluoro-1,1′-biphenyl-4-yl)-3-methyl-4-quinolinecarboxylic acid sodium salt] |  |  | metastable |  | 
Cc1c(-c2ccc(-c3ccccc3F)cc2)nc2ccc(F)cc2c1C(=O)[O-].[Na+] [Pattern C, 6-Flouro-2-(2′-fluoro-1,1′-biphenyl-4-yl)-3-methyl-4-quinolinecarboxylic acid sodium salt] |  |  |  |  | stable; also recorded: most stable
